Consider two compounds from ChEMBL document CHEMBL1138499, “Anti-AIDS agents. 78. Design, synthesis, metabolic stability assessment, and antiviral evaluation of novel betulinic acid derivatives as potent anti-human immunodeficiency virus (HIV) agents” (J Med Chem, 2009).

The nature of series [1]: Metabolic stability in human liver microsomes assessed as drug remaining at 1 mg/mL after 15 mins by HPLC. Format: ADME, Microsome. The note with it: read-out: Stability. (Liver microsomes are vesicles of endoplasmic reticulum, rich in cytochrome P450 enzymes.)
The nature of series [2]: Metabolic stability in human liver microsomes assessed as drug remaining at 1 mg/mL after 30 mins by HPLC. Particulars: read-out: Stability. It counts as ADME, Microsome.
The next series concerns MT2. The note with it: human.
Series [3] can be described thus: Metabolic stability in human liver microsomes assessed as drug remaining at 1 mg/mL after 5 mins by HPLC. It counts as ADME, Microsome. The note with it: read-out: Stability.
Series [4] is described as follows: Therapeutic index, ratio of CC50 for human MT2 cells to EC50 for HIV1 3B. Format: cell-based. The note with it: read-out: TI.
Series [5] is described as follows: Metabolic stability in human liver microsomes assessed as drug remaining at 1 mg/mL after 120 mins by HPLC. It counts as ADME, Microsome. Particulars: read-out: Stability.
For series [6], the system named is Human immunodeficiency virus 1. In words: Antiviral activity against HIV1 3B infected in human MT2 cells assessed as p24 antigen level after 4 days by ELISA. It counts as functional, organism-based. The note with it: Human immunodeficiency virus 1, 3B, MT2, 96 h.
Series [7] in a line: Metabolic stability in human liver microsomes assessed as drug remaining at 1 mg/mL after 60 mins by HPLC. Format: ADME, Microsome. The note with it: read-out: Stability.

Each structure is given as a SMILES string. pEC50: −log10 of the molar value.

Description for MT2: Cytotoxicity against human MT2 cells by XTT assay

Turning to `C=C(C)[C@@H]1CC[C@]2(C(=O)NCCCCCCCC(=O)O)CC[C@]3(C)[C@H](CC[C@@H]4[C@@]5(C)CC[C@H](O)C(C)(C)[C@@H]5CC[C@]43C)[C@@H]12`, the remaining at 0.25 h, 1 mg/mL in series [1] was found to be 70.7%. Moreover, in series [2], the remaining at 0.5 h, 1 mg/mL was determined as 61.9%. Further, the CC50 in the series on MT2 worked out at 33.4 µM. The remaining at 5 min, 1 mg/mL in series [3] amounted to 93.4%. Further, the selectivity ratio in series [4] came out at 10.1. Besides, the remaining at 2 h, 1 mg/mL in series [5] is 7.9%. The pEC50 (usually the EC50 on a negative log10 scale, so that one unit is a factor of ten) in series [6] was 5.48. Further, the remaining at 1 h, 1 mg/mL in series [7] is 40.1%.
Regarding `C=C(C)[C@@H]1CC[C@]2(C(=O)N3CCC(CCCC(=O)O)CC3)CC[C@]3(C)[C@H](CC[C@@H]4[C@@]5(C)CC[C@H](O)C(C)(C)[C@@H]5CC[C@]43C)[C@@H]12`, the remaining at 0.25 h, 1 mg/mL in series [1] was 97.6%. Moreover, the remaining at 0.5 h, 1 mg/mL in series [2] was 81.4%. The CC50 with MT2 was determined as 41 µM. The remaining at 5 min, 1 mg/mL in series [3] worked out at 102%. Moreover, the selectivity ratio in series [4] is 1.9. Besides, in series [5], the remaining at 2 h, 1 mg/mL was 53.8%. Also, the pEC50 in series [6] was 4.66. The remaining at 1 h, 1 mg/mL in series [7] was 62.7%.
